Results taken from PMC10338470, “Phase 1 study of GSK3368715, a type I PRMT inhibitor, in patients with advanced solid tumors” (British Journal of Cancer, 2023).

Key:
[1] = Plasma pharmacokinetics (LC-MS-MS, noncompartmental analysis); format: in vivo, human; conditions: for AUC0-24, geometric mean (%CVb) / Cmax, geometric mean (%CVb) / t1/2, geometric mean (%CVb) / tmax, median (range): plasma
Procedure: In both the dose-escalation and PK/PD cohorts, plasma samples for PK analysis were obtained following dosing on day 1 and pre- and postdose on days 2, 3, 4, 8, 15, 16, 22, and predose every 4 weeks thereafter. Plasma concentrations for GSK3368715 and its metabolites (GSK3963583, GSK3983164, and GSK3510519) were quantified using a validated ultra high-performance liquid chromatography-mass spectrometry-mass spectrometry (LC-MS-MS) method. PK parameters were analyzed using noncompartmental methods.
Adverse events and DLTs were summarized descriptively by dose cohort. Pharmacokinetic parameters of GSK3368715 and its metabolites (GSK3963583 and GSK3983164) were estimated in the PK/PD population (all participants for whom a PK sample was obtained) using a noncompartmental analysis model (WinNonlin version 8.1) and summarized descriptively. Best overall response as per RECIST 1.1 was summarized descriptively by dose cohort. Levels of tumor cell and plasma pharmacodynamic biomarkers were also summarized descriptively.

[2] = in vivo; cited from earlier work
[3] = tested on: circulating free ADMA, cfMMA, cfSDMA; assay: Plasma circulating free ADMA, MMA and SDMA; format: in vivo, human; conditions: day 15
Procedure: (§1) Tumor cell and plasma target engagement PD biomarkers were assessed in the dose-escalation cohort on days 1, 8, 15, and 22. In the PK/PD cohort, urine for PK and metabolite profiling was collected postdose on day 1 and through 48 h postdose on day 2, and for 24 h postdose on day 15. Participants underwent an on-treatment tumor biopsy on day 15. Asymmetric arginine 225 (R225) methylation of heterogeneous nuclear ribonucleoprotein A1 (hnRNP-A1) was identified as a target engagement PD of type I PRMT inhibition; treatment with GSK3368715 results in the reduction of asymmetric dimethylarginine 225 (ADMA-R225) on hnRNP-A1 protein in cancer cell lines and peripheral blood mononuclear cells (PBMCs). Noto et al. describe in detail the identification of hnRNP-A1 as a pharmacodynamic biomarker of type I PRMT inhibition, and the development of novel methodologies to accurately and precisely quantitate changes in the levels of ADMA on hnRNP-A1 in both blood and tumor compartments. Levels of ADMA-R225-hnRNP-A1 were measured in fresh frozen and formalin-fixed paired biopsies by liquid chromatography-mass spectrometry (LC-MS) and immunohistochemistry (IHC).

[4] = tested on: ADMA-R225-hnRNP-A1 in PBMCs; assay: ADMA-R225-hnRNP-A1 in PBMCs (LC-MS), target engagement; format: in vivo, human
Procedure: as §1
To measure the ADMA-R225-hnRNP-A1 in the PBMCs, blood was collected using the standard technique for BD Vacutainer® Evacuated Blood Collection Tubes. The PBMC aspirate prepared was used for the ADMA analyses as previously described by the LC-MS method.

[5] = tested on: ADMA-R225-hnRNP-A1 in tumor biopsies; assay: Tumor biopsy ADMA-R225-hnRNP-A1 by LC-MS (fresh frozen); format: in vivo, human; conditions: 100-mg dose level, day 15
Procedure: as §1

lymphomas = tested on: lymphomas; set-up: method as in PMID 31257072; conditions: lymphomas ref [6]; cited from earlier work
[6] = GSK3368715 50-mg dose escalation cohort, Day 1
[7] = GSK3368715 50-mg dose escalation cohort, Day 15
[8] = GSK3368715 100-mg PK/PD cohort, Day 1
[9] = GSK3368715 100-mg PK/PD cohort, Day 15
[10] = GSK3368715 100-mg dose escalation cohort, Day 1
[11] = GSK3368715 100-mg dose escalation cohort, Day 15
[12] = GSK3368715 100-mg total, Day 15

CCOCC1(COCC)CCC(c2[nH]ncc2CN(C)CCNC)CC1 [GSK3368715]
Increase of Cmax and AUC0−24 with dose ([1]; dose range studied (50-200 mg)): dose proportional
PK variability (%CVb) ([1]; in vivo): high PK variability
AUC0-24, geometric mean (%CVb) ([1]; GSK3368715 200 mg, Day 1): 1274.7 (43.8) h•ng/mL
Cmax, geometric mean (%CVb) ([1]; GSK3368715 200 mg, Day 1): 336.8 (72.6) ng/mL
t1/2, geometric mean (%CVb) ([1]; GSK3368715 200 mg, Day 1): 15.9 h
tmax, median (range) ([1]; GSK3368715 200 mg, Day 1): 1.1 (0.4, 3.1) h
AUC0-24, geometric mean (%CVb) ([1]; GSK3368715 200 mg, Day 15): 4861.4 (45.3) h•ng/mL
Cmax, geometric mean (%CVb) ([1]; GSK3368715 200 mg, Day 15): 729.2 (42.8) ng/mL
t1/2, geometric mean (%CVb) ([1]; GSK3368715 200 mg, Day 15): 2.9 (43.5) h
tmax, median (range) ([1]; GSK3368715 200 mg, Day 15): 1.0 (0.5, 3.1) h
AUC0-24, geometric mean (%CVb) [1, 6]: 259.5 (--) h•ng/mL
Cmax, geometric mean (%CVb) [1, 6]: 107.2 (48.8) ng/mL
tmax, median (range) [1, 6]: 0.28 (0.25, 1.1) h
AUC0-24, geometric mean (%CVb) [1, 7]: 581.9 (101.4) h•ng/mL
Cmax, geometric mean (%CVb) [1, 7]: 111.9 (48.5) ng/mL
tmax, median (range) [1, 7]: 3.0 (0.5, 3.1) h
AUC0-24, geometric mean (%CVb) [1, 8]: 937.6 (30.9) h•ng/mL
Cmax, geometric mean (%CVb) [1, 8]: 237.6 (62.3) ng/mL
t1/2, geometric mean (%CVb) [1, 8]: 8.8 (--) h
tmax, median (range) [1, 8]: 0.5 (0.3, 3.1) h
AUC0-24, geometric mean (%CVb) [1, 9]: 1628.8 (60.4) h•ng/mL
Cmax, geometric mean (%CVb) [1, 9]: 382.7 (67.4) ng/mL
t1/2, geometric mean (%CVb) [1, 9]: 1.4 (--) h
tmax, median (range) [1, 9]: 1.0 (0.5, 2.1) h
AUC0-24, geometric mean (%CVb) [1, 10]: 1020.7 (26.7) h•ng/mL
Cmax, geometric mean (%CVb) [1, 10]: 145.0 (207.3) ng/mL
t1/2, geometric mean (%CVb) [1, 10]: 7.2 (--) h
tmax, median (range) [1, 10]: 0.5 (0.3, 3.1) h
AUC0-24, geometric mean (%CVb) [1, 11]: 1479.6 (79.7) h•ng/mL
Cmax, geometric mean (%CVb) [1, 11]: 362.9 (115.9) ng/mL
t1/2, geometric mean (%CVb) [1, 11]: 1.8 (--) h
tmax, median (range) [1, 11]: 0.9 (0.5, 1.1) h
AUC0-24, geometric mean (%CVb) ([1]; GSK3368715 100-mg total, Day 1): 972.3 (27.1) h•ng/mL
Cmax, geometric mean (%CVb) ([1]; GSK3368715 100-mg total, Day 1): 197.4 (112.1) ng/mL
t1/2, geometric mean (%CVb) ([1]; GSK3368715 100-mg total, Day 1): 7.9 h
tmax, median (range) ([1]; GSK3368715 100-mg total, Day 1): 0.5 (0.3, 3.1) h
AUC0-24, geometric mean (%CVb) [1, 12]: 1573.8 (64.2) h•ng/mL
Cmax, geometric mean (%CVb) [1, 12]: 375.5 (79.9) ng/mL
t1/2, geometric mean (%CVb) [1, 12]: 1.6 (15.6) h
tmax, median (range) [1, 12]: 0.9 (0.5, 2.1) h
TEEs reported in preclinical models [2]: no TEEs
Increase in cfMMA, mean (SE 11.9%) ([3]; 100 mg): 24.8%
Increase in cfSDMA, mean (SE 8.65%) ([3]; 100 mg): 30.2%
Reduction in circulating free ADMA, mean (SE 1.98%) ([3]; 100 mg): 22.5%
Increase in cfMMA, mean (SE 18.7%) ([3]; 200 mg): 43.8%
Increase in cfSDMA, mean (SE 23.8%) ([3]; 200 mg): 39.8%
Reduction in circulating free ADMA, mean (SE 7.7%) ([3]; 200-mg dose group): 29.1%
Reduction of ADMA-R225-hnRNP-A1 in PBMCs, mean (SE 5.81%) ([4]; 100 mg, day 15): 43.1%
Reduction of ADMA-R225-hnRNP-A1 in PBMCs, mean (SE 6.92%) ([4]; 200-mg dose group, day 15): 54.7%
Target engagement in the blood ([4]; in vivo): observed
Target engagement in tumor biopsies [5]: modest and variable
Mean reduction of ADMA-hnRNP-A1 in tumor biopsies by LC-MS (SE 9.6) ([5]; in 4/6 patients): 18.5%
Cell lines with cytotoxic responses (lymphomas): 56%
